# Laboratory results as given in patent US8975288B2 (priority 2013, dated 2015).
# “Also recorded” adds a separate entry of the source. Read-outs that look alike come from different tables or passages of the source.
# Assays:
# S. flexneri [1] = assay: microbe, parasite or virus in culture; assay type: cell-based; conditions: Shigella flexneri
# [2] = tested on: B. anthracis Sterne (pXO1+, pXO2−); assay: microbe, parasite or virus in culture; assay type: cell-based; conditions: Bacillus anthracis
# trans-translation = assay type: biochemical, E. coli; conditions: 10 μM final concentration; DHFR template lacking the stop codon; tagging efficiency vs no inhibitor control
# B. subtilis = assay: microbe, parasite or virus in culture; assay type: cell-based; conditions: Bacillus subtilis, 24 h, read-out: MIC B. subtilis
# ΔclpX+pUTE29 = assay: microbe, parasite or virus in culture; assay type: cell-based, B. anthracis; conditions: Bacillus anthracis, 24 h, read-out: IC50 ΔclpX + pUTE29
# WT B. anthracis Sterne = assay: microbe, parasite or virus in culture; assay type: cell-based; conditions: Bacillus anthracis, 24 h, read-out: IC50 WT B. anthracis
# B. anthracis spores = assay type: cell-based
# MRSA strain, Sanger 252 = assay type: cell-based, S. aureus
# Mycobacterium smegmatis = assay: microbe, parasite or virus in culture; assay type: cell-based; conditions: Mycolicibacterium smegmatis, read-out: MIC Mycobacterium smegmatis
# WT+pUTE29 (empty vector) = assay: microbe, parasite or virus in culture; assay type: cell-based, B. anthracis; conditions: Bacillus anthracis, 24 h, read-out: IC50 WT + pUTE29
# HeLa cells = conditions: human
# B. anthracis = assay type: cell-based
# S. flexneri [3] = assay: microbe, parasite or virus in culture; assay type: cell-based; conditions: Shigella flexneri, 24 h, read-out: IC50 S. flexneri
# [4] = tested on: S. aureus methicillin-susceptible strain, Newman; assay type: cell-based
# E. coli TolC mutant = assay: microbe, parasite or virus in culture; assay type: cell-based; conditions: Escherichia coli, read-out: MIC E. coil TolC
# [5] = tested on: Auto-luminescent M. tuberculosis (LuxTB); assay: microbe, parasite or virus in culture; assay type: cell-based; conditions: Mycobacterium tuberculosis, read-out: IC50 M. tuberculosis
# B. anthracis ΔclpX+pclpX = assay: microbe, parasite or virus in culture; assay type: cell-based; conditions: Bacillus anthracis, 24 h, read-out: IC50 ΔclpX + pclpX
# B. anthracis Sterne = assay type: cell-based
# B. anthracis ΔclpX = assay: microbe, parasite or virus in culture; assay type: cell-based; conditions: Bacillus anthracis, 24 h, read-out: IC50 ΔclpX
# [6] = tested on: Wild-type M. tuberculosis; assay: microbe, parasite or virus in culture; assay type: cell-based; conditions: Mycobacterium tuberculosis, read-out: MIC against M. tuberculosis
# [7] = read-out: MIC Bacillus anthracis
# [8] = 24 h, read-out: MIC S. flexneri
# [9] = 24 h, read-out: MIC B. anthracis
molecule,measurement,setting,value
"CCCn1nnnc1NC(=O)c1ccccc1 [Compound 1, N-(1-propyl-1H-tetrazol-5-y1)benzamide]",MIC,S. flexneri [1]; read-out: MIC S. flexneri,> 500 µM
same,MIC,[2]; read-out: MIC B. anthracis,> 500 µM
"CCCn1nnnc1NC(=O)c1cccc(Br)c1 [Compound 2, 3-bromo-N-(1-propyl-1H-tetrazol-5-yl)benzamide]",MIC,S. flexneri [1]; read-out: MIC S. flexneri,250 µM
same,MIC,[2]; read-out: MIC B. anthracis,> 500 µM
"CCCn1nnnc1NC(=O)c1cccc(F)c1 [Compound 3, 3-fluoro-N-(1-propyl-1H-tetrazol-5-yl)benzamide]",MIC,S. flexneri [1]; read-out: MIC S. flexneri,> 500 µM
same,MIC,[2]; read-out: MIC B. anthracis,> 500 µM
"CCCn1nnnc1NC(=O)c1ccc(N(C)C)cc1 [Compound 4, 4-(dimethylamino)-N-(1-propyl-1H-tetrazol-5-yl)benzamide]",% inhibition in vitro,trans-translation,74.9%
same,MIC,S. flexneri [1]; read-out: MIC S. flexneri,> 500 µM
same,MIC,[2]; read-out: MIC B. anthracis,> 500 µM
"CCCn1nnnc1NC(=O)c1ccc(N(CC)CC)cc1 [Compound 5, 4-(diethylamino)-N-(1-propyl-1H-tetrazol-5-yl)-benzamide]",MIC,S. flexneri [1]; read-out: MIC S. flexneri,> 500 µM
same,MIC,[2]; read-out: MIC B. anthracis,> 500 µM
"CCCn1nnnc1NC(=O)C1CCCCC1 [Compound 7, N-(1-propyl-1H-tetrazol-5-yl)cyclohexane-carboxamide]",MIC,S. flexneri [1]; read-out: MIC S. flexneri,> 500 µM
same,MIC,[2]; read-out: MIC B. anthracis,> 500 µM
"CCCn1nnnc1NC(=O)C1CCCC1 [Compound 8, N-(1-propyl-1H-tetrazol-5-yl)cyclopentane-carboxamide]",MIC,S. flexneri [1]; read-out: MIC S. flexneri,> 500 µM
same,MIC,[2]; read-out: MIC B. anthracis,> 500 µM
O=C(Nc1nnn[nH]1)c1cccc(Cl)c1 [Compound 9],% inhibition in vitro,trans-translation,78.9%
"O=C(Nc1ccccc1)c1cccc(Cl)c1 [Compound 10, 3-chloro-N-phenylbenzamide]",% inhibition in vitro,trans-translation,68.1%
same,MIC,S. flexneri [1]; read-out: MIC S. flexneri,> 500 µM
same,MIC,[2]; read-out: MIC B. anthracis,> 500 µM
"O=C(Nc1ccncc1)c1cccc(Cl)c1 [Compound 11, 3-chloro-N-(pyridin-4-yl)benzamide]",% inhibition in vitro,trans-translation,57.9%
same,MIC,S. flexneri [1]; read-out: MIC S. flexneri,500 µM
same,MIC,[2]; read-out: MIC B. anthracis,> 500 µM
"O=C(NC1CCCCC1)c1cccc(Cl)c1 [Compound 12, 3-chloro-N-cyclohexylbenzamide]",% inhibition in vitro,trans-translation,44.6%
same,MIC,S. flexneri [1]; read-out: MIC S. flexneri,> 500 µM
same,MIC,[2]; read-out: MIC B. anthracis,> 500 µM
"O=C(NC1CCCC1)c1cccc(Cl)c1 [Compound 13, 3-chloro-N-cyclopentylbenzamide]",% inhibition in vitro,trans-translation,71.6%
same,MIC,S. flexneri [1]; read-out: MIC S. flexneri,> 500 µM
same,MIC,[2]; read-out: MIC B. anthracis,> 500 µM
CS(=O)(=O)NCCn1nnnc1NC(=O)c1cccc(Cl)c1 [Compound 14],% inhibition in vitro,trans-translation,47.8%
"O=C(Nc1nnnn1CCNS(=O)(=O)c1ccccc1)c1cccc(Cl)c1 [Compound 16, 3-chloro-N-(1-(2-(phenylsulfonamido)ethyl)-1H-tetrazol-5-yl)benzamide]",% inhibition in vitro,trans-translation,37.0%
same,MIC,[2]; [7],400 µM
"NCCn1nnnc1NC(=O)c1cccc(Cl)c1 [Compound D, N-(1-(2-aminoethyl)-1H-tetrazol-5-yl)-3-chlorobenzamide]",MIC,B. subtilis,> 200 µM
same,% inhibition in vitro,trans-translation,52.3%
same,MIC,S. flexneri [1]; [8],> 200 µM
same,MIC,[2]; [9],> 200 µM
"CCCn1nnnc1NC(=O)c1cccc(Cl)c1 [Compound F2, reference compound]",IC50,ΔclpX+pUTE29,22.3 µM
same,IC50,WT B. anthracis Sterne,17.6 µM
same,MIC,B. subtilis,26.1 µM
same,Vegetative cells from spores (inhibition of spore germination),B. anthracis spores,No vegetative cells were observed
same,Bacterial survival (cfu/ml) of MRSA,"MRSA strain, Sanger 252",significantly reduced bacterial survival in a synergistic manner
same,Direct antimicrobial activity against MRSA Sanger 252,"MRSA strain, Sanger 252",direct antimicrobial activity
same,Reduction of survival of MRSA Sanger 252,"MRSA strain, Sanger 252","at least 10,000 fold"
same,Survival of MRSA Sanger 252,"MRSA strain, Sanger 252",only slightly reduced
same,% inhibition in vitro,trans-translation,88.0%
same,MIC,Mycobacterium smegmatis,25 µM
same,IC50,WT+pUTE29 (empty vector),27.5 µM
same,MIC,S. flexneri [1]; [8],7.8 µM
same,MIC,S. flexneri [1]; read-out: MIC S. flexneri,3.13 µM
same,MIC,S. flexneri [1]; read-out: MIC Shigella flexneri,3.1 µM
same,Dose at which cytotoxicity in mammalian cells is seen,HeLa cells,500 to 1000 µM
same,Killing of B. anthracis in human whole blood vs vehicle control,B. anthracis,significantly enhanced killing
same,IC50,S. flexneri [3],5.95 µM
same,Survival of S. aureus Newman,[4],only slightly reduced; also recorded: No colonies were recovered
same,MIC,E. coli TolC mutant,12.5 µM
same,IC50,[5]; 48 h,292 µM
same,IC50,[5]; 72 h,226 µM
same,IC50,[5]; 96 h,115 µM
same,IC50,B. anthracis ΔclpX+pclpX,14.8 µM
same,Bacterial survival (cfu/ml) of B. anthracis Sterne,B. anthracis Sterne,significantly reduced bacterial survival in a synergistic manner
same,Direct antimicrobial activity against B. anthracis Sterne,B. anthracis Sterne,direct antimicrobial activity
same,Survival of B. anthracis Sterne vs vehicle control,B. anthracis Sterne,negligible effect on survival
same,IC50,B. anthracis ΔclpX,27 µM
same,MIC,[2]; [9],31.2 µM
same,MIC,[2]; read-out: MIC B. anthracis,25 µM
same,MIC,[2]; [7],25 µM
"CN(C)c1cccc2c(S(=O)(=O)NCCn3nnnc3NC(=O)c3cccc(Cl)c3)cccc12 [Dansyl-F2, 3-chloro-N-(1-(2-(5-(dimethylamino)naphthalene-1-sulfonamido)ethyl)-1H-tetrazol-5-yl)benzamide]",IC50,ΔclpX+pUTE29,6.28 µM
same,IC50,WT B. anthracis Sterne,5.28 µM
same,MIC,B. subtilis,13.3 µM
same,Vegetative cells from spores (inhibition of spore germination),B. anthracis spores,No vegetative cells were observed
same,MIC,[6],~50 µM
same,% inhibition in vitro,trans-translation,89.1%
same,IC50,WT+pUTE29 (empty vector),9.88 µM
same,MIC,S. flexneri [1]; [8],> 200 µM
same,IC50,S. flexneri [3],> 200 µM
same,MIC,E. coli TolC mutant,25 µM
same,IC50,[5]; 48 h,181 µM
same,IC50,[5]; 72 h,100 µM
same,IC50,[5]; 96 h,96.4 µM
same,IC50,B. anthracis ΔclpX+pclpX,6.22 µM
same,IC50,B. anthracis ΔclpX,5.93 µM
same,MIC,[2]; [9],7.8 µM
same,MIC,[2]; [7],5.3 µM
CCCCCCCCCC(=O)N[C@@H](Cc1c[nH]c2ccccc12)C(=O)N[C@H](CC(N)=O)C(=O)N[C@@H](CC(=O)O)C(=O)N[C@@H]1C(=O)NCC(=O)N[C@@H](CCCN)C(=O)N[C@@H](CC(=O)O)C(=O)N[C@H](C)C(=O)N[C@@H](CC(=O)O)C(=O)NCC(=O)N[C@H](CO)C(=O)N[C@@H]([C@H](C)CC(=O)O)C(=O)N[C@@H](CC(=O)c2ccccc2N)C(=O)O[C@@H]1C [daptomycin],Effect on parental and complemented B. anthracis strains,B. anthracis Sterne,not significantly affected
LL-37,Survival of MRSA Sanger 252,"MRSA strain, Sanger 252",only slightly reduced
same,Survival of S. aureus Newman,[4],only slightly reduced
same,Survival of B. anthracis Sterne vs vehicle control,B. anthracis Sterne,negligible effect on survival
